In test [1] the test system is presynaptic dopaminergic autoreceptors. As to the kind of experiment: Inhibition of Spontaneous Climbing in the Mouse. In kind it is in vivo. As to conditions: 10 minute period commencing 3 minutes after administration; for ID50, Inhibition of Spontaneous Climbing Behaviour in Mice: subcutaneous; for % Inhibition of Spontaneous Climbing Behaviour in Mice: at 0.2 mg/kg subcutaneous. As for the experimental part: It is believed that this inhibitory effect is mediated by stimultion of presynaptic dopaminergic autoreceptors, i.e. receptors whose stimulation results in inhibition of dopamine synthesis and electrical activity of dopamine neurones. Spontaneous climbing behavior was assessed by the method of M. P. Martres et al., Brain Res. 136, 319 (1977).
This involves the monitoring of the frequency of climbing behaviour of mice in inverted food hoppers over a 10 minute period commencing 3 minutes after subcutaneous administration of compound.
A climb is defined as the mouse having all four feet off the ground. Experiments are carried out with a minimum of 5 groups of 10 mice, one group acting as control. […] The ID50 value is calculated using the Litchfield and Wilcoxon technique and is defined as the concentration of drug which would be expected to reduce spontaneous climbing of a group of mice by 50%.

The target in test [2] is α-Adrenoceptor. In words: displacement of 3H-Prazosin, α-adrenoceptor labelling. In kind it is binding. An excerpt: (§1) α-Adrenoceptor and dopamine receptors were labelled using methods similar to those previously reported [see S. Lazareno and S. R. Nahorski, Communication presented to Brit. Pharm. Soc., Bradford, 74 (1981), and P. Greengrass and R. Bremer, Eur. J. Pharmacol 55, 323 (1979)].

Test [3] has as its target α-Adrenoceptor. In words: displacement of 3H-Yohimbine, α-adrenoceptor labelling. In kind it is binding.
Source text: as §1

Test [4] concerns the target T1, dopamine receptor (Rattus norvegicus, UniProt P61169).
T1 construct: from tissue
In words: displacement of 3H-Domperidone, dopamine receptor labelling. It counts as binding.
Source text: as §1
(In general: Displacement assays read how much labelled ligand stays bound in the presence of the test substance.)

For test [5], the target named is T1, dopamine receptor. As to the kind of experiment: displacement of 3H-Spiperone, dopamine receptor labelling. In kind it is binding.
Source text: as §1

The mark [6] stands for this setting: read-out: INHIBITION CONSTANT Ki, 3H-Prazosin.
[7] abbreviates: read-out: INHIBITION CONSTANT Ki, 3H-Yohimbine.
The mark [8] stands for this setting: 3H-Domperidone, read-out: INHIBITION CONSTANT Ki, 3H-Domperidone.
[9] abbreviates: 3H-Spiperone, read-out: INHIBITION CONSTANT Ki, 3H-Spiperone.

Where a name gives a salt, the structure may show the parent alone.

T1 sequence (P61169 whole entry): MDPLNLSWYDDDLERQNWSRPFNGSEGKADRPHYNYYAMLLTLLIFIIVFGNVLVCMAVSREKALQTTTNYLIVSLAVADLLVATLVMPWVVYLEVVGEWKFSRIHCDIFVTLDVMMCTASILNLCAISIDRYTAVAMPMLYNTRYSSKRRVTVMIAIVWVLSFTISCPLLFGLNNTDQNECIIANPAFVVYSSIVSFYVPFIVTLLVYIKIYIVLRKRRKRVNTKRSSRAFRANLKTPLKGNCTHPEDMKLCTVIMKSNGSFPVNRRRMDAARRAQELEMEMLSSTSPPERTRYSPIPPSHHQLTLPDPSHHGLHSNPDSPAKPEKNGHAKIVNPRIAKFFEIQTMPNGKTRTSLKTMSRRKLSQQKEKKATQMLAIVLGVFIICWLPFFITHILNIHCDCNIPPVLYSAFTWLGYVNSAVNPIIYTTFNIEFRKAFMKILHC

With `Oc1cccc(C2CCCN(CCc3cc4ccccc4o3)C2)c1` (stereo not drawn) [Compound 13, 3-(1-[2-(2-Benzofuryl)ethyl]-3-piperidyl)phenol hydrobromide hemihydrate], the “ID50, Inhibition of Spontaneous Climbing Behaviour in Mice” value (“ID50, Inhibition” below) in test [1] came out at 0.29 mg/kg.

With `Oc1cccc(C2CCCN(CCc3c[nH]c4ccccc34)C2)c1` (stereo not drawn) [Compound 34, 3-(1-[2-(1H-3-Indolyl)ethyl]-3-piperidyl)phenol], in test [1], the “% Inhibition of Spontaneous Climbing Behaviour in Mice” value (“% Inhibition” below) is 52%.

For the molecule `Oc1cccc(C2CCCN(Cc3coc4ccccc34)C2)c1` (stereo not drawn) [Compound 12, 3-[1-(3-Benzofurylmethyl)-3-piperidyl]phenol hydrobromide hemihydrate], the “% Inhibition” value in test [1] is given as 23%.

Take `Br.Oc1cccc(C2CCCN(Cc3cc4ccccc4o3)C2)c1` (stereo not drawn) [Compound 14, 3-[1-(2-benzofurylmethyl)-3-piperidyl]phenol hydrobromide]: in test [1], the “ID50, Inhibition” value was 1.7 mg/kg.

For `Br.Oc1cccc(C2CCCN(Cc3c(Br)oc4ccccc34)C2)c1` (stereo not drawn) [Compound 11, 3-[1-(2-bromo-3-benzofurylmethyl)-3-piperidyl]phenol hydrobromide], the “% Inhibition” value in test [1] turned out to be 24%.

Consider `NC1CCc2c(ccc(O)c2O)C1` (stereo not drawn) [A-5,6-DTN], for which the Ki stood at 16000 nM in test [2] (setting [6]), 690 nM in test [3] (setting [7]), 240 nM in test [4] (setting [8]) and 520 nM in test [5] (setting [9]).

Take `NC1CCc2cc(O)c(O)cc2C1` (stereo not drawn) [A-6,7-DTN]: the Ki is 10000 nM in test [2] (read-out: […] Ki, 3H-Prazosin); 560 nM in test [3] (read-out: […] Ki, 3H-Yohimbine); 12 nM in test [4]; 130 nM in test [5].

Turning to `Oc1cccc(C2CCCN(CC3Cc4ccccc4O3)C2)c1` (stereo not drawn) [Compound 30, 3-(1-[(2,3-Dihydro-2-benzofuranyl)methyl]-3-piperidinylphenol) hydrobromide hydrate], the Ki in test [2] (setting [6]) was 210 nM; in test [3] (setting [7]) it was 13 nM; in test [4] (setting [8]) it was 48 nM; in test [5] (setting [9]), 200 nM. For the same molecule, the “ID50, Inhibition” value in test [1] worked out at 0.09 mg/kg.

What is called Ki is a dissociation constant, usually derived from enzyme kinetics or from competition with a known ligand.

The record behind these values is patent publication US4460594A, “Bicyclo-hetero-alkylene-1-piperidines, pharmaceutical compositions thereof and methods of use thereof” (Beecham Group p.l.c., priority 1981, dated 1984).
